The results in this text go back to patent US8252273B2, “Ultraviolet absorber” (Lead Chemical Co., Ltd., priority 2007, dated 2012).

Series [1] is described as follows: Test Example 3: ultraviolet irradiation test (absorption spectra for different irradiation times). To be noted: conclusion for the compounds. In kind it is physicochemical. The source says: Ointments (samples B, C, D and E) prepared in Test Example 1 were interposed between two pieces of synthetic quartz plates to prepare measurement samples.
From a light radiated from a 500 W ultra-high pressure mercury vapor lamp (trade name: USH-500D; manufactured by Ushio Inc.), the visible light was removed through a water filter of 5 cm and an ultraviolet transmitting and visible light-absorbing filter (trade name: UV-D33S; manufactured by AGC Techno Glass Co., Ltd.). Then, each measurement sample was irradiated with ultraviolet rays mostly in the UVA and the UVB ranges. Ultraviolet rays irradiation time was set at 0, 5, 10, 15, 20, 25 and 30 minutes. The results of the test are shown in the ultraviolet absorption spectra of FIG. 4 to FIG. 7.

Series [2] in a line: Test Example 2: solubility test in organic solvents. The class given is physicochemical. The following applies: for Amount of solvent required to dissolve 100 mg of sample / Concentration on dissolving 100 mg of sample: room temperature (23 to 25° C.). How it is done:
Sample a: the O-tolyl-4-methoxycinnamate compound synthesized in Example 1
Sample b: the Compound of Reference Example 2
The amounts of various organic solvents capable of dissolving 100 mg of each sample at room temperature (23 to 25° C.) were measured. For dissolving the sample, a 50 mL polypropylene conical tube (manufactured by CORNING Inc.) was used, and dissolution was carried out by stirring with a shaker (trade name: Vortex G-56; manufactured by Scientific Ind. Inc.) for 1 minute.

As usually defined, the melting point is the temperature, or range, at which the solid turns liquid. For the compound `COc1ccc(/C=C/C(=O)Oc2ccccc2C)cc1` [Example 1, O-tolyl-4-methoxycinnamate], the melting point was 93 to 94 °C. Besides, the “Ultraviolet absorptive capacity (absorption strength) under ultraviolet irradiation in the UVA and the UVB ranges” value (from here on “Ultraviolet absorptive capacity”) in series [1] is on record as “increases further”. In addition, in series [2] (Acetone), the Amount of solvent required to dissolve 100 mg of sample was less than 1 mL and the “Concentration on dissolving 100 mg of sample” value (shortened to “Concentration”) is “(>10)”. Further, in series [2] (Ethanol), the “Amount of solvent required to dissolve 100 mg of sample” value (“Amount of solvent required” for short) was found to be 10 mL and the “Concentration” value is listed as “(1)”. In series [2] (Ether), the “Amount of solvent required” value was 3 mL and the “Concentration” value was “(3.3)”. In series [2] (Ethyl acetate), the Amount of solvent required to dissolve 100 mg of sample is less than 1 mL and the “Concentration” value is listed as “(>10)”. Further, in series [2] (Isopropyl alcohol), the “Amount of solvent required” value amounted to 15 mL and the “Concentration” value is “(0.67)”. Moreover, in series [2] (Methanol), the “Amount of solvent required” value is reported as 7.5 mL and the “Concentration” value is on record as “(1.3)”. Further, in series [2] (N-methylpyrrolidone), the Amount of solvent required to dissolve 100 mg of sample was less than 1 mL and the “Concentration” value was “(>10)”. In addition, the “Solubility in organic solvents compared with Reference Example 2” value in series [2] (almost all the organic solvents tested) is given as “better solubility than that of the compound of Reference Example 2”.

`CCOc1ccc(/C=C/C(=O)Oc2ccccc2C)cc1` [Example 2, O-tolyl-4-ethoxycinnamate] returned a melting point of 108 to 109 °C. For the same compound, the “Ultraviolet absorptive capacity” value in series [1] is “increases further”.

As to `CCCCC(CC)COC(=O)C=Cc1ccc(OC)cc1` (stereo not drawn) [Reference Example 1, 4-methoxycinnamic acid-2-ethylhexyl, reference compound], the “Ultraviolet absorptive capacity” value in series [1] was “decreases or remains the same”.

`COc1ccc(C(=O)CC(=O)c2ccc(C(C)(C)C)cc2)cc1` [Reference Example 2, 4-tert-butyl-4′-methoxy-dibenzoylmethane, reference compound]: the “Ultraviolet absorptive capacity” value in series [1] was “decreases or remains the same”.
